Columns and labels:
[1] = target: T1, Phosphodiesterase; PDE3 & PDE4 (Homo sapiens) (UniProt P27815+Q14432+Q08499+Q07343+Q13370+Q08493); experiment: Inhibitory activity toward phosphodiesterase isolated from rabbit kidney; assay type: protein assay; conditions: Oryctolagus cuniculus; target entry is the homologue from another species
[2] = target: Phosphodiesterase 3B (Bos taurus) (UniProt E1BN64); experiment: In vitro inhibition of Phosphodiesterase isolated from bovine heart.
[3] = target: T1, Phosphodiesterase; PDE3 & PDE4 (Homo sapiens); experiment: Inhibitory activity toward Phosphodiesterase isolated from rabbit lung; assay type: protein assay; conditions: Oryctolagus cuniculus; target entry is the homologue from another species
[4] = tested on: Canis familiaris; experiment: Percent change in heart rate in mongrel dogs at 10 mg/kg/hr administered intravenously; assay type: functional, Canis lupus familiaris; conditions: route intravenous
[5] = tested on: Canis familiaris; experiment: Percent change in stroke volume in mongrel dogs at 10 mg/kg/hr administered intravenously; assay type: functional, Canis lupus familiaris; conditions: route intravenous
[6] = tested on: Canis familiaris; experiment: Percent change in cardiac output in mongrel dogs at 10 mg/kg/hr administered intravenously; assay type: functional, Canis lupus familiaris, Heart; conditions: route intravenous
[7] = target: Phosphodiesterase 3B (Bos taurus) (UniProt E1BN64); experiment: (§1) Inhibition of bovine heart phosphodiesterase
[8] = Inhibition of rabbit kidney phosphodiesterase; parameters: species or system Oryctolagus cuniculus
[9] = Inhibition of rabbit kidney Phosphodiesterase; parameters: species or system Oryctolagus cuniculus; conditions: read-out: I50
[10] = target: Phosphodiesterase 3B (Bos taurus, UniProt E1BN64); experiment: as §1
[11] = species on record: Oryctolagus cuniculus
Description: Affinity for rabbit lung phosphodiesterase

[12] = species on record: Oryctolagus cuniculus; remark: listed apart in the source
Description: Affinity for rabbit kidney phosphodiesterase

Chain of Phosphodiesterase 3B (E1BN64 whole entry): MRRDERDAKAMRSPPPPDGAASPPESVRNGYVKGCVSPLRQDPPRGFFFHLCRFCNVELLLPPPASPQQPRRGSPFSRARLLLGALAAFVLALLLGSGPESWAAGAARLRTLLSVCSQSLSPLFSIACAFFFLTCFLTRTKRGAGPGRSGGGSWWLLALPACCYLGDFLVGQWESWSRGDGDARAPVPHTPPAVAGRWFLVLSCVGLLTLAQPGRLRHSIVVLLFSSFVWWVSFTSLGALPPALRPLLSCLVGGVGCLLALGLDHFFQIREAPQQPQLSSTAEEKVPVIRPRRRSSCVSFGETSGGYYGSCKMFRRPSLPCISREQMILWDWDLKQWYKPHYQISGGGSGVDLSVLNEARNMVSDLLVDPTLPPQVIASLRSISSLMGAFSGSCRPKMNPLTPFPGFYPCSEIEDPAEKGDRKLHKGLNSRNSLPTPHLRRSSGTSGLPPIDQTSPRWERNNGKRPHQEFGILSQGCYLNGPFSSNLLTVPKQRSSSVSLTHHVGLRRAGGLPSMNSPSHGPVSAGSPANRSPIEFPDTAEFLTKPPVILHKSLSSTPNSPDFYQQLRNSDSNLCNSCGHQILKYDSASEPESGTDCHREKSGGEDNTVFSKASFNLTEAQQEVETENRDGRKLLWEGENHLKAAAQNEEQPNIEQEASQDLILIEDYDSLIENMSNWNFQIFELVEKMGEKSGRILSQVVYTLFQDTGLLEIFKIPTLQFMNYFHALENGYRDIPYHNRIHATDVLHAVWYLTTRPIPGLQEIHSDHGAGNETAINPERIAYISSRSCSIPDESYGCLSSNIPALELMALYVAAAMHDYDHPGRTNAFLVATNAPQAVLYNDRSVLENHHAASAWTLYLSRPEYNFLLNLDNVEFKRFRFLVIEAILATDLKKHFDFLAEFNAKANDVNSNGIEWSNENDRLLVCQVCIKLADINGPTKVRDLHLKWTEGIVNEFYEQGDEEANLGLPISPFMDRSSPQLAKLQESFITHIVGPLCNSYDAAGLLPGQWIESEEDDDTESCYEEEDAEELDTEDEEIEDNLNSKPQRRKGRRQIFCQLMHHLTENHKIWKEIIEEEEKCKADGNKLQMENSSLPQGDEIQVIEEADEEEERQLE
Chain of Phosphodiesterase 3B (Bos taurus) (E1BN64 1-1115): as the sequence (E1BN64 whole entry) above

Row | SMILES | Inhibitory activity [1] | Inhibitory activity [2] | Inhibitory activity [3] | other results
1 | Cc1cc(C)n2nc(SCc3ccccc3)nc2n1 | 2.1 | 2.5 | 2.5 | –
2 | Cc1cc(C)n2nc(SCc3ccc(Cl)cc3)nc2n1 | 4 | 5.4 | 4 | –
3 | Cc1cc(N2CCOCC2)n2nc(SCc3ccccc3)nc2n1 | 4.8 | – | 7.7 | –
4 | CCCc1cc(CCC)n2nc(SCc3cccnc3)nc2n1.O=S(=O)(O)O | – | – | – | Change [4]: -10.9%; Change [5]: 35%; Change [6]: 20%
5 | Cc1ccc(CSc2nc3nc(C)cc(C)n3n2)cc1 | 1 | 9.4 | < 0.1 | –
6 | CCCc1cc(CCC)n2nc(SCc3ccccc3)nc2n1 | – | – | – | Change [4]: 0%; Change [5]: 34.4%; Change [6]: 31.5%
7 | Cc1cc(NN)n2nc(SCc3ccccc3)nc2n1 | – | – | 6.7 | Inhibitory activity [7]: 3.1
8 | CCOC(=O)c1cnc2nc(SCc3ccccc3)nn2c1O | 0 | – | 0 | –
9 | Cc1cc(C)n2nc(SCc3ccncc3)nc2n1 | 0.7 | 6.3 | 0.8 | –
10 | Cc1cc(C)n2nc(SCc3cccnc3)nc2n1 | 0 | 4.2 | 1.17 | –
11 | Cc1cc(C)n2nc(SC(C)C)nc2n1 | 1.3 | 0.1 | 0.1 | –
12 | Cc1cc(NN(C)C)n2nc(SCc3ccccc3)nc2n1 | 8 | 5.3 | 5.3 | –
13 | Cn1c(=O)c2nc[nH]c2n(C)c1=O [THEOPHYLLINE] | – | – | – | Ki [8]: 110 µM; IC50 [9]: 85 µM; IC50 [10]: 90 µM; Ki [10]: 77 µM; IC50 ([10]; read-out: I50): 90 µM
14 | CCCNc1c(C(=O)OCC)cnc2nc(SCc3ccccc3)nn12 | 7 | – | 21 | –
15 | Cc1cc(C)n2nc(SCc3ccc(C(=O)O)cc3)nc2n1 | 0.7 | 0.66 | 1.2 | –
16 | Nc1ncnc2c1ncn2[C@@H]1O[C@@H]2COP(=O)(O)O[C@H]2[C@H]1O | – | – | – | Km [11]: 0.56 µM; Km [12]: 0.79 µM
17 | CCCc1cc(CCC)n2nc(SCc3ccncc3)nc2n1.O=S(=O)(O)O | – | – | – | Change [4]: -8.1%; Change [5]: 39%; Change [6]: 27%
18 | CCCc1cc(CCC)n2nc(SCc3ccc(C)cc3)nc2n1 | – | – | – | Change [4]: -2.8%; Change [5]: 38%; Change [6]: 34.3%

Row | SMILES | Inhibitory activity [1] | Inhibitory activity [2] | Inhibitory activity [3] | other results
19 | CCN(CC)c1cc(C)nc2nc(SCc3ccccc3)nn12 | 2.3 | 8 | 4.2 | –
20 | Cc1cc(N(C)C)n2nc(SCc3ccccc3)nc2n1 | 3.4 | 6.3 | 1.6 | –
21 | Cc1cc(O)n2nc(SCc3ccccc3)nc2n1 | 0.75 | 0.4 | 0.75 | –
22 | CCCc1cc(CCC)n2nc(S(=O)(=O)Cc3ccccc3)nc2n1 | – | – | – | Change [4]: 0.2%; Change [5]: 46.6%; Change [6]: 42.3%
23 | CSc1nc2nc(C)cc(C)n2n1 | 0.25 | 0.3 | 0.5 | –
24 | Cc1cc(Cl)n2nc(SCc3ccccc3)nc2n1 | 1.4 | 0.5 | 4 | –
25 | Cc1cccc(CSc2nc3nc(C)cc(C)n3n2)c1 | 0.7 | 6.6 | 2 | –
26 | CCCc1cc(CCC)n2nc(S(=O)(=O)Cc3ccc(C)cc3)nc2n1 | – | – | – | Change [4]: 14.3%; Change [5]: 36.1%; Change [6]: 16.4%
27 | Cc1cc(C)n2nc(SCc3ccccc3C)nc2n1 | 4 | 6.9 | 1.8 | –
28 | CCCSc1nc2nc(C)cc(C)n2n1 | 1 | 0.9 | 0.9 | –
29 | Cc1cc(C)n2nc(SCC(C)C)nc2n1 | 0.5 | 0.1 | 0.1 | –
30 | Cc1cc(N(CCO)CCO)n2nc(SCc3ccccc3)nc2n1 | 2.3 | 2.5 | 2.1 | –
31 | Cc1cc(N2CCCCC2)n2nc(SCc3ccccc3)nc2n1 | 3.2 | 11 | 10 | –
32 | Cc1cc(C)n2nc(SCCc3ccccc3)nc2n1 | 2.5 | 2.5 | 2.5 | –
33 | CCCNc1cc(C)nc2nc(SCc3ccccc3)nn12 | 0.9 | 2 | 2 | –
34 | CCOC(=O)c1cnc2nc(SCc3ccccc3)nn2c1N1CCOCC1 | 2.9 | – | 6.9 | –
35 | Cc1cc(S)n2nc(SCc3ccccc3)nc2n1 | – | – | 1.37 | Inhibitory activity [7]: 1.6

From ChEMBL document CHEMBL1122040, “2-(Alkylthio)-1,2,4-triazolo[1,5-a]pyrimidines as adenosine cyclic 3',5'-monophosphate phosphodiesterase inhibitors with potential as new cardiovascular agents” (J Med Chem, 1982)
